We go through two molecules from patent publication US11014898B1, “Benzothiazepine compounds and their use as bile acid modulators” (Albireo AB, priority 2020, dated 2021).

Data set [1] addresses T1, Human IBAT (Homo sapiens, UniProt Q12908).
T1 construct: expressed in transfected cells; cells kept under Puromycin selection
T1 sequence (Q12908 1-348): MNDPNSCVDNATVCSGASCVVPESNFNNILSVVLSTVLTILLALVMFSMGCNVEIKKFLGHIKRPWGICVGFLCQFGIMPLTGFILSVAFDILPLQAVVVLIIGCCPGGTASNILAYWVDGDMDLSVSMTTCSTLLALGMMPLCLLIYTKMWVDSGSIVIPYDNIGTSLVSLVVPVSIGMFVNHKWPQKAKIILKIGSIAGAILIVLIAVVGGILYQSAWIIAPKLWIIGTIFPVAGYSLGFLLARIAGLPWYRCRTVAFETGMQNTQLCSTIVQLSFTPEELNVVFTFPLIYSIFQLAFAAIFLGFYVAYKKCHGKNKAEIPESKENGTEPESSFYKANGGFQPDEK
In words: IBAT (h) assay: 3H-taurocholic acid uptake in human IBAT-overexpressing cells. In kind it is cell-based. The following applies: 0.25 μM 3H-taurocholic acid and 5 μM cold taurocholic acid, 20 minutes, read-out: hIBAT IC50. As to the method:
10,000 cells (Human or Mouse IBAT-overexpressing cells) were seeded in 96-wells plate (Corning CLS3809) in 200 μL MEM-alpha medium (Gibco 12571-063) supplemented with 10% FBS (Gibco 10438026) containing Puromycin (Gibco A1113803) (10 μg/mL) and incubated at 37° C. in 5% CO2 for 48 hours. After incubation, media was decanted from the wells and cells were washed two times with 300 μL of basal MEM-alpha medium (FBS-free). After decanting basal MEM-alpha medium each time, plates were tapped against paper towel to ensure maximum removal of residual media. Test inhibitor dilutions (highest test concentration being 10 μM, 3-fold serial dilution, 10 points) prepared in DMSO (Sigma D2650) were added in incubation mix (maintaining 0.2% final DMSO concentration) containing 0.25 μM 3H-taurocholic acid (ARC ART-1368) and 5 μM of cold taurocholic acid (Sigma T4009). 50 μL of incubation mix containing test inhibitors was then added to the wells (in duplicate) and the plates were incubated for 20 minutes in a CO2 incubator at 37° C. After incubation, the reaction was stopped by keeping the plates on ice water mix for 2-3 minutes and then the incubation mix was aspirated completely from the wells. The wells were washed two times with 250 μL of chilled unlabelled 1 mM taurocholic acid dissolved in HEPES (Gibco 15630080)-buffered (10 mM) HBSS (Gibco 14175079) (pH 7.4). The plates were tapped against a paper towel after every wash to ensure maximum removal of blocking buffer.
100 μL of MicroScint-20 (PerkinElmer 6013621) was added to the wells and kept overnight at room temperature before reading the plates in TopCount NXT™ Microplate Scintillation and Luminescence Counter from PerkinElmer under 3H Test protocol (set at 120 seconds reading time per well).
All test compounds were provided in powder form at room temperature. 10 mM DMSO stocks of the test compounds were prepared, aliquoted and stored at −20° C. From the 10 mM DMSO stock of the compounds, a 3-fold serial dilution in DMSO was prepared to get a total of 10 dilutions of the test compounds. 0.5 μL of this dilution in DMSO was added to 250 μL of FBS-free basal media containing 3H-taurocholic acid and cold taurocholic acid to prepare the incubation mixture.

Data set [2] is described as follows: Bidirectional permeability assay (Caco-2 cells). The following applies: human, Caco-2, pH 7.4, 10 μM in FaSSIF buffer, 120 minutes at 37° C.; for Papp A→B at 120 min, 10 μM: absorptive direction (A2B); for Papp B→A at 120 min, 10 μM: secretory direction (B2A). The format is in vitro ADME. As to the method:
Caco-2 cells (Evotec) were seeded at a density of 70,000 cells/well in Millicell® 24-well cell culture insert plates and maintained in an incubator (37° C., 5% CO2, 95% RH) for 21 days with media change on alternate days.
Stock solutions (10 mM) of the test compounds, atenolol (low permeability marker), propranolol (high permeability marker) and digoxin (substrate for P-gp transport pathway) were prepared in dimethylsulfoxide (DMSO). An intermediate stock solution (1 mM) was prepared by diluting 10 μL of 10 mM master stock solution with 90 μL of neat DMSO. A working stock solution (10 μM) was prepared by diluting 50 μL of 1 mM with 4950 μL of FaSSIF buffer. Post addition of compounds to the FaSSIF, samples were subjected to sonication for 2 hours, and centrifuged at 4000 RPM for 30 minutes at 37° C. The 4 mL of resultant supernatant was directly used in the assay. The final DMSO concentration in the transport experiments was 1%.
On the day of assay, Caco-2 monolayers were washed twice with transport buffer (HBSS, pH 7.4) and pre-incubated for 30 min (37° C., 5% CO2, 95% RH) in an incubator. The electrical resistance of the monolayers was measured with a Millicell®-ERS system. Monolayers with trans-epithelial electrical resistance (TEER) values greater than 350 ohm·cm^2 were selected for the assay.
The assay was conducted in absorptive direction (A2B) and secretory (B2A) directions. Transport experiments were initiated by addition of transport assay buffer (FaSSIF buffer prepared in HBSS) consisting of compounds to the donor compartment (apical chamber A-B; basolateral chamber B-A) in duplicate (n=2) wells. Drug free HBSS buffer (pH 7.4) containing 1% bovine serum albumin (BSA) was introduced to the receiver (A-B-basolateral; B-A-Apical) compartments. The volumes of apical and basolateral compartments were 0.4 and 0.8 mL, respectively. After adding dosing solution, plates were incubated in an incubator for 120 minutes at 37° C. After 120 minutes, donor and receiver samples were collected and matrix matched (1:1, 30 μL study sample+30 μL blank buffer) with the opposite buffer. Dosing samples matrix matched (1:1, 30 μL study sample+30 μL blank buffer) with the opposite buffer. Samples were processed by adding acetonitrile containing internal standard (60 μL study sample+200 μL acetonitrile containing internal standard-Tolbutamide, 500 ng/mL). Samples were vortexed and centrifuged at 4000 rpm for 10 minutes. The obtained supernatant (100 μL) was diluted with 100 μL of water and transferred to fresh 96 well plates. The concentration of compounds in the samples was analyzed by liquid chromatography tandem mass spectrometry (LC-MS/MS) method using discovery grade bio-analytical method, as applicable.
The mean apparent permeability (Papp×10^−6 cm/sec) of the test compounds, atenolol, propranolol and digoxin were calculated as follows:
where dq/dt=rate of transport (rate of transport of compound in the receiver compartment), C0=initial concentration in the donor compartment, A=surface area of the effective filter membrane.
Background: Caco-2 cells form a polarised layer with tight junctions and transporters.

A short description of data set [3]: Bioavailability studies (iv and oral dosing, plasma LC-MS/MS). In kind it is in vivo, mice (C57BL/6). The following applies: male, mouse, C57BL/6 mice, single oral dose of 10 mg/kg, single intravenous dose of 1 mg/kg. As to the method:
Male mice (C57BL/6 or CD1) or Wistar rats of 8-9 weeks old were used. For each test compound, two groups of 3 animals each were used. One group was administered a single intravenous dose of 1 mg/kg (vehicle 100% DMSO) through the tail vein and the other group was administered a single oral dose of 10 mg/kg through gavage needle. The group that was administered an oral dose was fasted overnight. Blood samples were collected after 0.083, 0.25, 0.5, 1, 2, 4, 6, 8 and 24 hours following intravenous administration, and after 0.25, 0.5, 1, 2, 4, 6, 8 and 24 hours following oral administration. Blood samples were taken from saphenous vein. 0.2% EDTA was used as the anticoagulant. The samples were analyzed by a discovery grade bioanalytical method developed for the estimation of test compound in plasma, using an LC-MS/MS system.

Turning to `CCCCC1(CCCC)CN(c2ccc(C#N)cc2)c2cc(SC)c(OCC(=O)O)cc2S(=O)(=O)C1` [Example 5, 2-((3,3-dibutyl-5-(4-cyanophenyl)-7-(methylthio)-1,1-dioxido-2,3,4,5-tetrahydro-1,5-benzothiazepin-8-yl)oxy)acetic Acid], the IC50 (commonly the concentration that gives 50% inhibition) in data set [1] came out at 58 nM. For the same molecule, in data set [2], the apparent permeability from apical to basolateral (Papp A→B) (commonly the apparent permeability from the apical to the basolateral side of a cell layer) at 120 min, 10 μM was 5.5 ×10⁻⁶ cm/s and the Papp B→A (in general, how fast a substance crosses the layer from the basolateral side) at 120 min, 10 μM was 14.5 ×10⁻⁶ cm/s. Moreover, in data set [3], the bioavailability – broadly, the share of a dose that reaches the circulation, judged against a reference dose that is usually intravenous – was 6%.

Turning to `CCCCC1(CC)CN(c2ccccc2)c2cc(N(C)C)c(OCC(=O)O)cc2S(=O)(=O)C1` (single isomer, unassigned) [Example 8, 2-((3-butyl-7-(dimethylamino)-3-ethyl-1,1-dioxido-5-phenyl-2,3,4,5-tetrahydro-1,5-benzothiazepin-8-yl)oxy)acetic Acid], in data set [1], the IC50 came out at 9 nM. In addition, in data set [2], the Papp A→B at 120 min, 10 μM worked out at 7.9 ×10⁻⁶ cm/s and the Papp B→A at 120 min, 10 μM amounted to 23.7 ×10⁻⁶ cm/s. Moreover, in data set [3], the bioavailability was determined as 26%.
